pIC50: −log10 of the molar value. Read-outs that look alike come from different tables or passages of the source.
Legend:
[1] = target: T1, recombinant N-terminal GST-tagged human Rho kinase 2 (ROCK2, amino acids 1-552) (Homo sapiens, UniProt O75116); test: In vitro Rho kinase assay (luciferase-based ATP consumption), ROCK2; type: biochemical
T1 construct: ROCK2, amino acids 1-552; purchased Invitrogen Inc. PV3759
Method in brief: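 Luciferase-based luminescence of leftover ATP after 2 h at 30 °C, where inhibition raises signal, reports activity of GST-tagged ROCK2 (aa 1-552) at 0.82 μg/ml. Conditions: S6 peptide 100 μg/ml, […], pH 7.5 Tris buffer. Results given as percent of H-1152P control activity.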

[2] = target: T2, recombinant N-terminal GST-tagged human Rho kinase 1 (ROCK1, amino acids 1-535) (Homo sapiens, UniProt Q13464); test: In vitro Rho kinase assay (luciferase-based ATP consumption), ROCK1; type: biochemical
T2 construct: ROCK1, amino acids 1-535; purchased Invitrogen Inc. PV-3691
T2 sequence (Q13464 1-535): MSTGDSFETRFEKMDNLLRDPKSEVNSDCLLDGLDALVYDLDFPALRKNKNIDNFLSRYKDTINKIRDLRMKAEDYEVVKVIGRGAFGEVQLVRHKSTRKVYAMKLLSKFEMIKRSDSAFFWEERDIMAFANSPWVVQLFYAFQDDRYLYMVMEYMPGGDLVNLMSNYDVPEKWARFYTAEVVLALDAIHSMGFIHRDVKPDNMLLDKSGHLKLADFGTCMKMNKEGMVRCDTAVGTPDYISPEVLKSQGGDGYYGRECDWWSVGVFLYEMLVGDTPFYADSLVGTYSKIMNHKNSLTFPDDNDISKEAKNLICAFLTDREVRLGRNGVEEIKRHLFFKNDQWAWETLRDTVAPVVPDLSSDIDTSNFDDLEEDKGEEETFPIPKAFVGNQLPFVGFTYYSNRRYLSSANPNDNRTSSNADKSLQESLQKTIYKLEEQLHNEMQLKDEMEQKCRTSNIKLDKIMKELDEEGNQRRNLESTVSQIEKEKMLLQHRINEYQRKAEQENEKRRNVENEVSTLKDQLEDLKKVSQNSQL
Method in brief: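 ATP depletion measured by firefly luciferase luminescence after 2 h at 30 °C, with inhibition raising signal and activity expressed relative to H-1152P. Reaction: 0.82 μg/ml recombinant GST-tagged ROCK1 (aa 1-535), S6 peptide 100 μg/ml, […], pH 7.5 Tris buffer.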

[3] = recombinant GST-tagged human ROCK2, luciferase-based ATP consumption, read-out: ROCK2 IC50
[4] = recombinant GST-tagged human ROCK1, luciferase-based ATP consumption, read-out: ROCK1 IC50
[5] = ROCK2 IC50, recombinant GST-tagged human ROCK2, luciferase-based ATP consumption
[6] = ROCK1 IC50, recombinant GST-tagged human ROCK1, luciferase-based ATP consumption

T1 sequence (O75116 1-552): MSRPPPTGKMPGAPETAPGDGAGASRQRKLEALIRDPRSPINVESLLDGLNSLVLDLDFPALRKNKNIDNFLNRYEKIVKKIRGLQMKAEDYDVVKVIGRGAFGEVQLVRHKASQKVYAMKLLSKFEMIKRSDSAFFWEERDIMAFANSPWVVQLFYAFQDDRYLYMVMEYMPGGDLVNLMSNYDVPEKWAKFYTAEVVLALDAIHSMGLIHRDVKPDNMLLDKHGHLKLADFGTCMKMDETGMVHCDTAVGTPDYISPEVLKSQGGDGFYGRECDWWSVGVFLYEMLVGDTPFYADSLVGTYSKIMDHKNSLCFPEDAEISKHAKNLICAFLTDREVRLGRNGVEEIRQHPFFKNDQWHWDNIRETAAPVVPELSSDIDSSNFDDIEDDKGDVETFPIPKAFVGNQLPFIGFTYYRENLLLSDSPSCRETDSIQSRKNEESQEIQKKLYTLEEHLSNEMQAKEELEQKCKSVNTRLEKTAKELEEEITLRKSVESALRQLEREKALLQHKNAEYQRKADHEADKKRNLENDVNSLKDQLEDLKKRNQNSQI

| SMILES | pIC50 [1, 3] | pIC50 [2, 4] | pIC50 [1, 5] | pIC50 [2, 6] |
| --- | --- | --- | --- | --- |
| Cc1cc(C(=O)NCc2ccc3sc(-c4ccnc(N)n4)c(C)c3c2)cc(Cl)n1 [Example 187, Cc1cc(cc(Cl)n1)C(═O)NCc2ccc3sc(c(C)c3c2)-c4ccnc(N)n4] | > 5.30 | > 5.30 | – | – |
| CC(=O)c1cccc(C(=O)NCc2ccc3sc(-c4ccnc(N)n4)c(C)c3c2)c1 [Example 164, CC(═O)c1cccc(c1)C(═O)NCc2ccc3sc(c(C)c3c2)-c4ccnc(N)n4] | > 5.30 | < 5.30 | – | – |
| Cc1c(-c2ccnc(N)n2)sc2ccc(CNC(=O)c3cccc(Br)n3)cc12 [Example 270, Cc1c(sc2ccc(CNC(═O)c3cccc(Br)n3)cc12)-c4ccnc(N)n4] | > 5.30 | > 5.30 | – | – |
| Cc1c(-c2ccnc(N)n2)sc2ccc(Nc3cncc(C(=O)O)c3)cc12 [Example 71, 5-(2-(2-Aminopyrimidin-4-yl)-3-methylbenzo[b]thiophen-5-ylamino)nicotinic acid] | > 5.30 | > 5.30 | – | – |
| Cc1c(-c2ccnc(N)n2)sc2ccc(CNC(=O)c3cc(Cl)ccn3)cc12 [Example 151, Cc1c(sc2ccc(CNC(═O)c3cc(Cl)ccn3)cc12)-c4ccnc(N)n4] | > 5.30 | > 5.30 | – | – |
| Cc1c(-c2ccnc(N)n2)sc2ccc(CNC(=O)C3CN(C(=O)OC(C)(C)C)CCN3)cc12 (stereo not drawn) [Example 308, Cc1c(sc2ccc(CNC(═O)[C]3CN(CCN3)C(═O)OC(C)(C)C)cc12)-c4ccnc(N)n4] | < 5.30 | < 5.30 | – | – |
| Cc1c(-c2ccnc(N)n2)sc2ccc(CNC(=O)c3ccccc3-c3ccccc3)cc12 [Example 261, Cc1c(sc2ccc(CNC(═O)c3ccccc3-c4ccccc4)cc12)-c5ccnc(N)n5] | > 5.30 | < 5.30 | – | – |
| Cc1c(-c2ccnc(N)n2)sc2ccc(CNC(=O)c3ccc(Cl)cc3[N+](=O)[O-])cc12 [Example 267, Cc1c(sc2ccc(CNC(═O)c3ccc(Cl)cc3[N+]([O−])═O)cc12)-c4ccnc(N)n4] | > 5.30 | < 5.30 | – | – |
| Cc1c(-c2ccnc(N)n2)sc2ccc(Nc3cccnc3)cc12 [Example 65, 4-(3-Methyl-5-(pyridin-3-ylamino)benzo[b]thiophen-2-yl)pyrimidin-2-amine] | > 5.30 | > 5.30 | – | – |
| Cc1c(-c2ccnc(N)n2)sc2ccc(CNC(=O)c3cc(Br)ccc3Cl)cc12 [Example 314, Cc1c(sc2ccc(CNC(═O)c3cc(Br)ccc3Cl)cc12)-c4ccnc(N)n4] | – | – | > 5.30 | > 5.30 |
| Cc1c(-c2ccnc(N)n2)sc2ccc(CNC(=O)c3ccc(OCc4ccccc4)cc3)cc12 [Example 302, Cc1c(sc2ccc(CNC(═O)c3ccc(OCc4ccccc4)cc3)cc12)-c5ccnc(N)n5] | < 5.30 | < 5.30 | – | – |
| COc1cccc(O)c1C(=O)NCc1ccc2sc(-c3ccnc(N)n3)c(C)c2c1 [Example 181, COc1cccc(O)c1C(═O)NCc2ccc3sc(c(C)c3c2)-c4ccnc(N)n4] | > 5.30 | > 5.30 | – | – |
| Cc1c(-c2ccnc(N)n2)sc2ccc(CNC(=O)C=Cc3ccccc3Cl)cc12 [Example 225, Cc1c(sc2ccc(CNC(═O)C═Cc3ccccc3Cl)cc12)-c4ccnc(N)n4] | – | – | > 5.30 | < 5.30 |
| Cc1c(-c2ccnc(N)n2)sc2ccc(CNC(=O)C=Cc3cccc(O)c3)cc12 [Example 163, Cc1c(sc2ccc(CNC(═O)C═Cc3cccc(O)c3)cc12)-c4ccnc(N)n4] | > 5.30 | > 5.30 | – | – |
| CC(=O)Nc1cccc(NC(=O)c2ccc3sc(-c4ccnc(N)n4)c(C)c3c2)c1 [Example 20, N-(3-Acetamidophenyl)-2-(2-aminopyrimidin-4-yl)-3-methylbenzo[b]thiophene-5-carboxamide] | > 5.30 | > 5.30 | – | – |
| Cc1ccc(O)c(C(=O)NCc2ccc3sc(-c4ccnc(N)n4)c(C)c3c2)c1 [Example 141, Cc1ccc(O)c(c1)C(═O)NCc2ccc3sc(c(C)c3c2)-c4ccnc(N)n4] | > 5.30 | < 5.30 | – | – |
| Cc1c(-c2ccnc(N)n2)sc2ccc(CNC(=O)CCc3ccccc3O)cc12 [Example 176, Cc1c(sc2ccc(CNC(═O)CCc3ccccc3O)cc12)-c4ccnc(N)n4] | > 5.30 | < 5.30 | – | – |
| Cc1c(-c2ccnc(N)n2)sc2ccc(CNC(=O)c3cc([N+](=O)[O-])ccc3Cl)cc12 [Example 265, Cc1c(sc2ccc(CNC(═O)c3cc(ccc3Cl)[N+]([O−])═O)cc12)-c4ccnc(N)n4] | – | – | > 5.30 | < 5.30 |
| Cc1c(-c2ccnc(N)n2)sc2ccc(CNC(=O)C(Cc3ccc(O)cc3)NC(=O)OC(C)(C)C)cc12 (stereo not drawn) [Example 328, Cc1c(sc2ccc(CNC(═O)C(Cc3ccc(O)cc3)NC(═O)OC(C)(C)C)cc12)c4ccnc(N)n4] | > 5.30 | > 5.30 | – | – |
| Cc1c(-c2ccnc(N)n2)sc2ccc(CNC(=O)c3ccc4cc(O)ccc4c3)cc12 [Example 236, Cc1c(sc2ccc(CNC(═O)c3ccc4cc(O)ccc4c3)cc12)-c5ccnc(N)n5] | > 5.30 | > 5.30 | – | – |
| CC(=O)Nc1cccc(C(=O)NCc2ccc3sc(-c4ccnc(N)n4)c(C)c3c2)c1 [Example 206, CC(═O)Nc1cccc(c1)C(═O)NCc2ccc3sc(c(C)c3c2)-c4ccnc(N)n4] | > 5.30 | > 5.30 | – | – |
| Cc1c(-c2ccnc(N)n2)sc2ccc(CNC(=O)CC#N)cc12 [Example 97, Cc1c(sc2ccc(CNC(═O)CC#N)cc12)-c3ccnc(N)n3] | > 5.30 | > 5.30 | – | – |
| COc1ccc(C=CC(=O)NCc2ccc3sc(-c4ccnc(N)n4)c(C)c3c2)cc1O [Example 256, COc1ccc(C═CC(═O)NCc2ccc3sc(c(C)c3c2)-c4ccnc(N)n4)cc1O] | > 5.30 | > 5.30 | – | – |
| Cc1c(-c2ccnc(N)n2)sc2ccc(CNC(=O)C3CCCCN3C(=O)OC(C)(C)C)cc12 (stereo not drawn) [Example 305, Cc1c(sc2ccc(CNC(═O)[C]3CCCCN3C(═O)OC(C)(C)C)cc12)-c4ccnc(N)n4] | < 5.30 | < 5.30 | – | – |
| Cc1c(-c2ccnc(N)n2)sc2ccc(CNC(=O)c3ccc(F)c([N+](=O)[O-])c3)cc12 [Example 231, Cc1c(sc2ccc(CNC(═O)c3ccc(F)c(c3)[N+]([O−])═O)cc12)-c4ccnc(N)n4] | > 5.30 | > 5.30 | – | – |
| Cc1c(-c2ccnc(N)n2)sc2ccc(CNC(=O)c3ccc(F)cc3F)cc12 [Example 155, Cc1c(sc2ccc(CNC(═O)c3ccc(F)cc3F)cc12)-c4ccnc(N)n4] | > 5.30 | < 5.30 | – | – |
| Cc1c(-c2ccnc(N)n2)sc2ccc(CNC(=O)c3cccc4ccccc34)cc12 [Example 189, Cc1c(sc2ccc(CNC(═O)c3cccc4ccccc34)cc12)-c5ccnc(N)n5] | > 5.30 | > 5.30 | – | – |
| Cc1c(-c2ccnc(N)n2)sc2ccc(CNC(=O)c3cccs3)cc12 [Example 34, N-((2-(2-Aminopyrimidin-4-yl)-3-methylbenzo[b]thiophen-5-yl)methyl)thiophene-2-carboxamide] | > 5.30 | > 5.30 | – | – |
| COc1cccc(OC)c1C(=O)NCc1ccc2sc(-c3ccnc(N)n3)c(C)c2c1 [Example 220, COc1cccc(OC)c1C(═O)NCc2ccc3sc(c(C)c3c2)-c4ccnc(N)n4] | > 5.30 | < 5.30 | – | – |
| COc1cncc(Nc2ccc3sc(-c4ccnc(N)n4)c(C)c3c2)c1 [Example 67, 4-(5-(5-Methoxypyridin-3-ylamino)-3-methylbenzo[b]thiophen-2-yl)pyrimidin-2-amine] | > 5.30 | > 5.30 | – | – |

From patent US20080021026A1, “BENZOTHIOPHENE INHIBITORS OF RHO KINASE” (priority 2006, published 2008)
